Experimental data from ChEMBL document CHEMBL1126144, “Synthesis and evaluation of radioiodinated 2-(2(RS)-aminopropyl)-5- iodothiophenes as brain imaging agents” (J Med Chem, 1992).

Legend:
Rattus norvegicus [1] = test: Distribution of the radioiodinated compound expressed as percent dose per gram, in liver of unfasted rats after 5 mins of intravenous administration (11.5 uCi/animal); value ranges from 1.64-2.38 % dose/g; format: ADME, organism-based; conditions: in vivo
Rattus norvegicus [2] = test: Distribution of the radioiodinated compound expressed as percent dose per gram, in kidney of unfasted rats after 60 mins of intravenous administration (11.5 uCi/animal); value ranges from 0.74-0.85 % dose/g; format: ADME, organism-based; conditions: in vivo, 1 h
Rattus norvegicus [3] = test: Distribution of the radioiodinated compound expressed as percent dose per gram, in blood of unfasted rats after 5 mins of intravenous administration (11.5 uCi/animal); value ranges from 0.28-0.37% dose/g; format: ADME, organism-based; conditions: in vivo
Rattus norvegicus [4] = test: Distribution of the radioiodinated compound expressed as percent dose per gram, in blood of unfasted rats after 60 mins of intravenous administration (11.5 uCi/animal); value ranges from % dose/g; format: ADME, organism-based; conditions: in vivo, 1 h
Rattus norvegicus [5] = test: Distribution of the radioiodinated compound expressed as percent dose per organ, in thyroid of unfasted rats after 60 mins of intravenous administration (11.5 uCi/animal); value ranges from 0.99-1.40 % dose/g; format: ADME, organism-based, Thyroid gland; conditions: in vivo, 1 h
Rattus norvegicus [6] = test: Distribution of the radioiodinated compound expressed as percent dose per gram, in heart of unfasted rats after 5 mins of intravenous administration (11.5 uCi/animal); value ranges from 0.85-1.13 % dose/g; format: ADME, organism-based; conditions: in vivo
Rattus norvegicus [7] = species: Rattus norvegicus; test: Specific activity of the radioiodinated compound was determined in rats; format: functional
Rattus norvegicus [8] = test: Distribution of the radioiodinated compound expressed as percent dose per gram, in thyroid of unfasted rats after 60 mins of intravenous administration (11.5 uCi/animal); value ranges from 31.90-39.98 % dose/g; format: ADME, organism-based, Thyroid gland; conditions: in vivo, 1 h
Rattus norvegicus [9] = test: Distribution of the radioiodinated compound expressed as percent dose per gram, in lungs of unfasted rats after 60 mins of intravenous administration (11.5 uCi/animal); value ranges from 1.87-2.12 % dose/g; format: ADME, organism-based, Lung; conditions: in vivo, 1 h
Rattus norvegicus [10] = test: Distribution of the radioiodinated compound expressed as percent dose per gram, in kidney of unfasted rats after 5 mins of intravenous administration (11.5 uCi/animal); value ranges from 2.12-3.14 % dose/g; format: ADME, organism-based; conditions: in vivo
Rattus norvegicus [11] = test: Distribution of the radioiodinated compound expressed as percent dose per gram, in lungs of unfasted rats after 5 mins of intravenous administration (11.5 uCi/animal); value ranges from 5.92-8.51% dose/g; format: ADME, organism-based, Lung; conditions: in vivo
Rattus norvegicus [12] = test: Distribution of the radioiodinated compound expressed as percent dose per gram, in liver of unfasted rats after 30 mins of intravenous administration (11.5 uCi/animal); value ranges from 0.08-0.90 % dose/g; format: ADME, organism-based; conditions: in vivo, 0.5 h
Rattus norvegicus [13] = test: Distribution of the radioiodinated compound expressed as percent dose per organ, in thyroid of unfasted rats after 30 mins of intravenous administration (11.5 uCi/animal); value ranges from 0.05-0.38 % dose/g; format: ADME, organism-based, Thyroid gland; conditions: in vivo, 0.5 h
Rattus norvegicus [14] = test: Distribution of the radioiodinated compound expressed as percent dose per gram, in thyroid of unfasted rats after 5 mins of intravenous administration (11.5 uCi/animal); value ranges from 7.87-16.51 % dose/g; format: ADME, organism-based, Thyroid gland; conditions: in vivo
Rattus norvegicus [15] = test: Distribution of the radioiodinated compound expressed as percent dose per gram, in brain of unfasted rats after 30 mins of intravenous administration (11.5 uCi/animal); value ranges from 0.16-1.76 % dose/g; format: ADME, organism-based; conditions: in vivo, 0.5 h
Rattus norvegicus [16] = test: Distribution of the radioiodinated compound expressed as percent dose per gram, in heart of unfasted rats after 60 mins of intravenous administration (11.5 uCi/animal); value ranges from 0.33-0.42 % dose/g; format: ADME, organism-based; conditions: in vivo, 1 h
Rattus norvegicus [17] = test: Distribution of the radioiodinated compound expressed as percent dose per gram, in brain of unfasted rats after 60 mins of intravenous administration (11.5 uCi/animal); value ranges from 0.81-1.08 % dose/g; format: ADME, organism-based; conditions: in vivo, 1 h
Rattus norvegicus [18] = test: Distribution of the radioiodinated compound expressed as percent dose per gram, in kidney of unfasted rats after 30 mins of intravenous administration (11.5 uCi/animal); value ranges from 0.15-1.43 % dose/g; format: ADME, organism-based; conditions: in vivo, 0.5 h
Rattus norvegicus [19] = test: Distribution of the radioiodinated compound expressed as percent dose per gram, in blood of unfasted rats after 30 mins of intravenous administration (11.5 uCi/animal); value ranges from 0.06-0.63 % dose/g; format: ADME, organism-based; conditions: in vivo, 0.5 h
Rattus norvegicus [20] = test: Distribution of the radioiodinated compound expressed as percent dose per gram, in thyroid of unfasted rats after 30 mins of intravenous administration (11.5 uCi/animal); value ranges from 5.03-36.88 % dose/g; format: ADME, organism-based, Thyroid gland; conditions: in vivo, 0.5 h
Rattus norvegicus [21] = test: Distribution of the radioiodinated compound expressed as percent dose per gram, in lungs of unfasted rats after 30 mins of intravenous administration (11.5 uCi/animal); value ranges from 0.51-3.71 % dose/g; format: ADME, organism-based, Lung; conditions: in vivo, 0.5 h
Rattus norvegicus [22] = test: Distribution of the radioiodinated compound expressed as percent dose per gram, in liver of unfasted rats after 60 mins of intravenous administration (11.5 uCi/animal); value ranges from 0.61-0.81 % dose/g; format: ADME, organism-based; conditions: in vivo, 1 h
Rattus norvegicus [23] = test: Distribution of the radioiodinated compound expressed as percent dose per gram, in brain of unfasted rats after 5 mins of intravenous administration (11.5 uCi/animal); value ranges from 2.57-3.59 % dose/g; format: ADME, organism-based; conditions: in vivo
Rattus norvegicus [24] = test: Distribution of the radioiodinated compound expressed as percent dose per gram, in heart of unfasted rats after 30 mins of intravenous administration (11.5 uCi/animal); value ranges from 0.06-0.53 % dose/g; format: ADME, organism-based; conditions: in vivo, 0.5 h
Rattus norvegicus [25] = test: Distribution of the radioiodinated compound expressed as percent dose per organ, in thyroid of unfasted rats after 5 mins of intravenous administration (11.5 uCi/animal); value ranges from 0.08-0.17 % dose/g; format: ADME, organism-based, Thyroid gland; conditions: in vivo

CC(C)NC(C)Cc1ccc(I)s1 (racemic)
Distribution (Rattus norvegicus [1]): 2.06 % dose g-1 | Distribution (Rattus norvegicus [2]): 0.79 % dose g-1 | Distribution (Rattus norvegicus [3]): 0.31 % dose g-1 | Distribution (Rattus norvegicus [4]): 0.6 % dose g-1 | Distribution (Rattus norvegicus [5]): 1.24 % dose organ-1 | Distribution (Rattus norvegicus [6]): 0.94 % dose g-1 | Activity (Rattus norvegicus [7]): 40 mCi animal-1 | Distribution (Rattus norvegicus [8]): 36.45 % dose g-1 | Distribution (Rattus norvegicus [9]): 1.97 % dose g-1 | Distribution (Rattus norvegicus [10]): 2.72 % dose g-1 | Distribution (Rattus norvegicus [11]): 7.01 % dose g-1 | Distribution (Rattus norvegicus [12]): 0.71 % dose g-1 | Distribution (Rattus norvegicus [13]): 0.28 % dose organ-1 | Distribution (Rattus norvegicus [14]): 12.51 % dose g-1 | Distribution (Rattus norvegicus [15]): 1.37 % dose g-1 | Distribution (Rattus norvegicus [16]): 0.37 % dose g-1 | Distribution (Rattus norvegicus [17]): 0.95 % dose g-1 | Distribution (Rattus norvegicus [18]): 1.04 % dose g-1 | Distribution (Rattus norvegicus [19]): 0.49 % dose g-1 | Distribution (Rattus norvegicus [20]): 26.26 % dose g-1 | Distribution (Rattus norvegicus [21]): 2.76 % dose g-1 | Distribution (Rattus norvegicus [22]): 0.07 % dose g-1 | Distribution (Rattus norvegicus [23]): 3.18 % dose g-1 | Distribution (Rattus norvegicus [24]): 0.42 % dose g-1 | Distribution (Rattus norvegicus [25]): 0.13 % dose organ-1
